Test results: publication PMC12712055, “3D-MINFLUX nanoscopy reveals distinct allosteric mechanisms for activation and modulation of PIEZO1 by Yoda1” (Nature Communications, 2025)

Experiments:
Assay in all cases: calcium imaging (genetically encoded Ca2+ indicator), peak F/F0
Assay type in all cases: cell-based
[1] = target: T1, mouse PIEZO1 (PIEZO1-mScarlet / PIEZO1-ALFA-mGL) (Mus musculus, UniProt E2JF22)
T1 construct: full-length; C-terminal mScarlet (SG linker), or ALFA tag inserted after H86 plus C-terminal mGreenLantern (SG linker); transiently expressed in N2a-P1KO (mouse Neuro-2a PIEZO1-knockout) cells; homotrimer

[2] = target: T2, mouse PIEZO1 (PIEZO1-mScarlet / PIEZO1-ALFA-mGL) (Mus musculus, UniProt E2JF22, A2094W)
T2 construct: full-length; C-terminal mScarlet (SG linker), or ALFA tag inserted after H86 plus C-terminal mGreenLantern (SG linker); transiently expressed in N2a-P1KO (mouse Neuro-2a PIEZO1-knockout) cells; homotrimer

[3] = target: T3, mouse PIEZO1 (PIEZO1-mScarlet / PIEZO1-ALFA-mGL) (Mus musculus, UniProt E2JF22, F1715A/V1714A)
T3 construct: full-length; C-terminal mScarlet (SG linker), or ALFA tag inserted after H86 plus C-terminal mGreenLantern (SG linker); transiently expressed in N2a-P1KO (mouse Neuro-2a PIEZO1-knockout) cells; homotrimer
T3 sequence (E2JF22 whole entry V1714A/F1715A): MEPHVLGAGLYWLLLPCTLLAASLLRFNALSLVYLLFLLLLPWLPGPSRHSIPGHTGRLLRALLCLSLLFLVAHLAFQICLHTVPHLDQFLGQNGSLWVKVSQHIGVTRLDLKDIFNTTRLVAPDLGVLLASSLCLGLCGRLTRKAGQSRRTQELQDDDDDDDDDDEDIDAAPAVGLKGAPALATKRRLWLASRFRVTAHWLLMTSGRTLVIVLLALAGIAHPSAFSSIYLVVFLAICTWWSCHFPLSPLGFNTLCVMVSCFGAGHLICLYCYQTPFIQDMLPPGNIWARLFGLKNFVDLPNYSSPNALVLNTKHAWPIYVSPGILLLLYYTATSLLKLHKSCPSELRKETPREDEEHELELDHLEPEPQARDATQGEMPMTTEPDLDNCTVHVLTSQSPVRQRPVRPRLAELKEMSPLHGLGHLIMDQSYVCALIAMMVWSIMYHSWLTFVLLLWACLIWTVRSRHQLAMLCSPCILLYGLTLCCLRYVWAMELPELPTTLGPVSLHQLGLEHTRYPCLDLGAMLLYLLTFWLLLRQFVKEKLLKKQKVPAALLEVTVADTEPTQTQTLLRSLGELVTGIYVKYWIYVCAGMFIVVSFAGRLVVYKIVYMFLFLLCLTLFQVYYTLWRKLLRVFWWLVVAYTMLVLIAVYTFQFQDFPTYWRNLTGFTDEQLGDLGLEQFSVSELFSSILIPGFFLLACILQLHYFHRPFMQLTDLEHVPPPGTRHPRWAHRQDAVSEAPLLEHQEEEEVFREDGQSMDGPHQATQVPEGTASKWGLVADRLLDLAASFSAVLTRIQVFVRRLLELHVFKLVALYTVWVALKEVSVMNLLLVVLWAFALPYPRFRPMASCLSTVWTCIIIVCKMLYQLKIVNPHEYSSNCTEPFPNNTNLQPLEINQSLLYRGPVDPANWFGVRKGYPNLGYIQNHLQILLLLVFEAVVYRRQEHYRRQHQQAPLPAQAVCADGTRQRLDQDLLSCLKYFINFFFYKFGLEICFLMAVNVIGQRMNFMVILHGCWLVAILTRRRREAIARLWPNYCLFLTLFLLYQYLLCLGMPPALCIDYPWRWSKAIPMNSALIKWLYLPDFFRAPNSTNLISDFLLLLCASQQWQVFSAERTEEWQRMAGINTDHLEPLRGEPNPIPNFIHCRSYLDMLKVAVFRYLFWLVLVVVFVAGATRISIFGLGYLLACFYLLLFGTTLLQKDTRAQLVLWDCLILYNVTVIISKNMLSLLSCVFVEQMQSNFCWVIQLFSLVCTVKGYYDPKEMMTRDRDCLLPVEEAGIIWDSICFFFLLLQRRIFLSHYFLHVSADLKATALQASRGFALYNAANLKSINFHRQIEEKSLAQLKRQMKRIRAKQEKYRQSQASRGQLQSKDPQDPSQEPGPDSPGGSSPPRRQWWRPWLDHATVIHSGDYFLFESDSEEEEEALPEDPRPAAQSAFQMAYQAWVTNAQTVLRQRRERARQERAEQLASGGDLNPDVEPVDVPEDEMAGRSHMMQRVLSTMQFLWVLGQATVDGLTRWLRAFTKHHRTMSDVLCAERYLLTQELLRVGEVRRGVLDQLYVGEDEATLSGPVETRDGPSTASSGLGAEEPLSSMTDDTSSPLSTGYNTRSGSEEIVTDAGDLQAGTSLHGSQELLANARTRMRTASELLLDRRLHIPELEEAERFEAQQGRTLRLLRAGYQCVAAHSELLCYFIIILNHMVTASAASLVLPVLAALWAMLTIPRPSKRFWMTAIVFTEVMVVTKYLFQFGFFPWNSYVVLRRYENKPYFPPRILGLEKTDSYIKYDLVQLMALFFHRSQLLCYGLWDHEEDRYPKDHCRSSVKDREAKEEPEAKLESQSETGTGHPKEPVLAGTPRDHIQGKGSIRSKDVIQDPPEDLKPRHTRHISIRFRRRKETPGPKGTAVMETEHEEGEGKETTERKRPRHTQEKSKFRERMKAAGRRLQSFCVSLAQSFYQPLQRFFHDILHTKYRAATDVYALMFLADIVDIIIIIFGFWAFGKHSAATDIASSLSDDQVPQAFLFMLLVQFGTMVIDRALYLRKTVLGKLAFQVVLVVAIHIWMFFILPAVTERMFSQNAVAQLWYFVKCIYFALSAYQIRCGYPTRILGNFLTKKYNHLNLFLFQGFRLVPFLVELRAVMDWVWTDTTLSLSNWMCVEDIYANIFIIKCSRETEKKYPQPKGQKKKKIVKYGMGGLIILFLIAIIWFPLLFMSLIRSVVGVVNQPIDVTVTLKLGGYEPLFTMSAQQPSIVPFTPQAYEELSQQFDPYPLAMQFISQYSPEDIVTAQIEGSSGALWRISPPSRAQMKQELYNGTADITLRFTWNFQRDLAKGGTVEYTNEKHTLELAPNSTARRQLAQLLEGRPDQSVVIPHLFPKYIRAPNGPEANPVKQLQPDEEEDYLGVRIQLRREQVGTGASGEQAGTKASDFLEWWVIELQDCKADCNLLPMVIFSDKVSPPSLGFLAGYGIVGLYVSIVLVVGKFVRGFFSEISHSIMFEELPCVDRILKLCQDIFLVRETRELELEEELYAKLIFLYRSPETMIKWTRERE

T1 sequence (E2JF22 whole entry): as the sequence (E2JF22 whole entry V1714A/F1715A) above, with A1714V, A1715F counted along it
T2 sequence (E2JF22 whole entry A2094W): as the sequence (E2JF22 whole entry V1714A/F1715A) above, with A1714V, A1715F, A2094W counted along it

O=C(O)c1ccc(-c2nnc(SCc3c(Cl)cccc3Cl)s2)cc1 [Yoda2]
EC50 [1]: 30 nM | EC50 [2]: 7030 nM | EC50 [3]: 67 nM
